Results on one compound are retold here after US8871227B2, “Process and formulation containing epothilones and analogs thereof” (Bristol-Myers Squibb Company, priority 2003, dated 2014).

The structures appear in SMILES notation.

What all share (assay type): physicochemical
Data set [1] can be described thus: Degradation during dissolution and lyophilization. To be noted: tertiary butanol/water 1:1, lyophilized at −30° C. about 100 hours, dried at 25° C. about 35 hours, light protected. As to the method: [1S-[1R*,3R*(E),7R*,10S*,11R*,12R*,16S*]]-7,11-Dihydroxy-8,8,10,12,16-pentamethyl-3-[1-methyl-2-(2-methyl-4-thiazolyl)ethenyl]-4-aza-17-oxabicyclo[14.0]heptadecane-5,9-dione, 4.04 g, was wetted/partially dissolved with 500 mL of a 4:1 mixture of tertiary butanol and Water for Injection USP which had been pre-cooled to 5° C. Once the drug powder had become completely wetted, dissolution was completed by the addition of […] Water for Injection, thereby making the final solution a 1:1 mixture. The dissolution was carried out under protection from light.
The solution formed above was promptly lyophilized in a Virtis GENESIS lyophilizer at −30° C. under light protected conditions over a period of about 100 hours. The resultant lyophilized product (lyophile) was then further dried at 25° C. under high vacuum for about 35 hours. […] The lyophile was packaged under sterile conditions into 15 mL vials, each containing 20 mg of drug and standard excess to allow for vial/needle/syringe loss.

Data set [2] in a line: pH of maximum stability. The source says: The term, “pH of maximum stability,” or “maximum stability pH” means the pH at which a compound (or mixture of compounds) is least likely to degrade, or at which the compound (or mixtures of compounds) will degrade most slowly. Each compound or mixture of compounds will have a pH of maximum stability. However, the pH of maximum stability also may encompass a range of pH's. […] In this case, the pH of maximum stability is 7.1±1.
For example, in the embodiment involving use of the epothilone analog of formula II, the pH of maximum stability is about 7.0. A preferred dose of this epothilone analog when diluted in the infusion fluid is approximately in the range of about 0.05 to about 1.0 mg/mL, more preferably in the range of about 0.1 to about 0.8 mg/mL, and most preferably in the range of about 0.2 to about 0.6 mg/mL. The inventors herein have determined that for this epothilone analog and preferred dose, an advantageous buffer is sodium lactate, and a preferred concentration of this buffer in the formulation for administration is in the range of about 3 to about 30 mg/mL, more preferably in the range of about 10 to about 20 mg/mL, even more preferably at a concentration of about 15 mg/mL. […]

Data set [3] in a line: Infusion stability: loss of potency over six hour hold time after dilution in infusion fluid. To be noted: for loss of potency (degradation of active compound) / loss of potency (degradation in active compound): 0.2 mg/mL; for loss of potency (degradation of active compound): with buffer and base; for loss of potency (degradation in active compound): without buffer and base. As to the method:
To illustrate the surprising advantages of the invention, a formulation including the compound of formula II was diluted in a 0.9% Sodium Chloride Injection infusion fluid to a concentration of 0.2 mg/mL, without buffer and base. […] As a further illustration, a formulation including the compound of formula II was diluted in a 5% dextrose injection fluid to a concentration of 0.2 mg/mL, without buffer and base.

Data set [4] can be described thus: Stability of aqueous solution: time for 5% drug loss (t95). To be noted: 25°. On the procedure: The compounds represented by formulae I and II present challenges from the viewpoint of pharmaceutical compounding for administration to patients for a number of reasons. […] Of particular concern with the present invention, compounds of formulae I and II can degrade when exposed to low pH, e.g., certain compounds of formula I presumably are susceptible to acids catalyzed hydrolysis. For example, the time for 5% drug loss (t95) at 25° for an aqueous solution of compound II is approximately 2 h at pH 7, but less than 0.2 h at pH 2.5.

As to `C/C(=C\c1csc(C)n1)C1CC2O[C@]2(C)CCC[C@H](C)[C@H](O)[C@@H](C)C(=O)C(C)(C)[C@@H](O)CC(=O)N1` (relative stereo) [II, [1S-[1R*,3R*(E),7R*,10S*,11R*,12R*,16S*]]7,11-Dihydroxy-8,8,10,12,16-pentamethyl-3-[1-methyl-2-(2-methyl-4-thiazolyl)ethenyl]-4-aza-7oxabicyclo[14.1.0]heptadecane-5,9-dione], the “degradation of the drug during dissolution, lyophilization and drying” value in data set [1] is listed as “No detectable degradation”. The “pH of maximum stability” value in data set [2] is “about 7.0”. Besides, the “loss of potency (degradation of active compound)” value in data set [3] (0.9% Sodium Chloride Injection) is listed as “about 3.6%”; in data set [3] (5% dextrose injection fluid), “about 4%”. Further, the “loss of potency (degradation in active compound)” value in data set [3] (0.9% Sodium Chloride Injection) is listed as “about 6%”; in data set [3] (5% dextrose injection fluid), “about 13%”. The enhancement in stability entry in data set [3] (0.9% Sodium Chloride Injection, with vs without buffer and base) is “approximately 40%”. Moreover, in data set [3] (5% dextrose injection fluid, with vs without buffer and base), the enhancement of stability result is “greater than 65%”. Further, the results for the “time for 5% drug loss (t95)” value in data set [4] (pH 2.5) and in data set [4] (pH 7) were “less than 0.2 h” and “approximately 2 h”, respectively.
